In patent publication US20240110150A1, “PHOTON UPCONVERSION BIOMATERIALS, MICELLE AND NANOPARTICLES FOR THREE-DIMENSIONAL (3D) OPTOGENETICS” (THE TRUESTEES OF COLUMBIA UNIVERSITY IN THE CITY OF NEW YORK, priority 2020, published 2024):

Tested on: HeLa cells
Test: Cell viability assay (Cell-Titer-Glo) of emulsions, one hour
Assay type: cell-based
Protocol: HeLa cells (obtained from American Type Culture Collection) were maintained in Dulbecco's Modified Eagle's Medium (Gibco) supplemented with 10% fetal bovine serum (Invitrogen) at 37° C. in a humidified 5% CO2 atmosphere. For viability assays testing biocompatibility of the emulsions, cells were plated in a 96-well white opaque plate format at 40,000 cells per well, allowed to seed overnight, and then treated with emulsions at indicated concentrations for one hour. These viability assays utilized the Cell-Titer-Glo 2.0 reagent (Promega, G9243) according to the manufacturer's instructions. Briefly, 100 μL of Cell-Titer-Glo 2.0 reagent, diluted at 1:1 with culture media, was added to each well containing 100 μl emultion-particles-containing media. Plates were gently agitated for 2 minutes and incubated at room temperature for 10 minutes in the dark to promote adequate mixing. Luminescence was subsequently measured using a Victor 5 plate reader (Perkin Elmer). The intensity of luminescence was normalized to that of cells with no emulsion particles added.

Row | Substance | biocompatibility of emulsion surfactants
1 | Tween 80 | only Pluronic F127 was found to be biocompatible and nontoxic
2 | Pluronic F127 | biocompatible and nontoxic to the cells
